Results taken from patent publication US20250179028A1, “ACRYLAMIDE COMPOUNDS” (NRG THERAPEUTICS LTD, priority 2022, published 2025).
Marks after values point to notes of the source that are not given here.

Key:
[1] = Microsomal clearance assay; type: in vitro ADME; settings: rat liver microsomes; average value from two experiments
Description: The microsomal stability of test compounds was evaluated using rat liver microsomes (BiolVT) with and without the cofactors nicotinamide adenine dinucleotide phosphate (NADPH) and undine-diphosphate-glucuronic acid (UDPGA). Reactions were performed in a final volume of 250 μl pre-warmed (37° C.) 100 mM phosphate buffer containing 5 mM MgCl2, 0.025 mg/ml alamethicin, and 0.5 mg/ml rat liver microsomes. NADPH and UDPGA were included at 1 mM and 2 mM respectively, where appropriate. Reactions were started with the addition of 1 μM (final concentration) test compound. Verapamil was used as the positive control. Solutions were incubated in a water bath at 37° C. and aliquots collected at 0.5, 5, 15, 30 and 60 min. Reactions were stopped by the addition of 5 volumes of cold acetonitrile with internal standards (200 nM caffeine and 100 nM tolbutamide). Samples were centrifuged at 3220 g for 40 min. An aliquot of supernatant was diluted 1:1 In ultra-pure H2O, then used for LC-MS/MS analysis. Peak areas were determined from extracted ion chromatograms. The slope value, k, was determined by linear regression of the natural logarithm of the remaining percentage of the parent drug vs. incubation time curve. The in vitro half-life (in vitro t½) was determined from the slope value: in vitro t½=0.693/k. Conversion of the in vitro t½ (min) into the in vitro intrinsic clearance (in vitro CLint, in μL/min/mg protein) was done using the following equation (mean of duplicate determinations): […]

mPTP [2] = assay: mPTP mitochondria membrane potential flow cytometry assay in stimulated human platelets; type: cell-based
Description: The mPTP cell based assay was performed using a mitochondria membrane potential flow cytometry assay in stimulated human platelets. Simulation of platelets results in the rapid influx of Ca^2+ across the platelet membrane. The Ca^2+ is then sequestered by mitochondria until the threshold for mPTP opening is reached, at which point the pore opens and the mitochondrial membrane potential is dissipated. Changes in mitochondria membrane potential due to mPTP opening can be quantified in live platelets using standard mitochondrial membrane potential dyes e.g. 3,3′-dihexyloxacarbocyanine Iodide; DiOC6(3), enabling pharmacological characterisation of mPTP inhibitors.
Fresh human blood (20 ml) was collected from consenting donors into 3.2% sodium citrate. Platelets were isolated by centrifugation at 200 g for 20 min at room temperature, then the platelet rich plasma layer transferred to a fresh tube. Prostaglandin 12 is added to the platelets at a final concentration of 20 ng/ml. After centrifugation at 640 g for 10 min, the platelet rich pellet was resuspended in 4 ml HEPES assay buffer (137 mM NaCl, 2.7 mM KCl, 11.9 mM NaHCO3, 0.42 mM NaH2PO4, 1 mM MgCl2, 5.5 mM glucose, 0.1% bovine serum albumin, 10 mM HEPES adjusted to pH 7.4) and stored on ice.
Test compounds were prepared from 10 mM stocks in DMSO and serially diluted in assay buffer containing 0.4% DMSO and 25 μl transferred into a 96 well plate. Platelets were loaded with the mitochondrial membrane potential dye DiOC6(3) (3,3′-dihexyloxacarbocyanine Iodide; Invitrogen) at 200 nM for 30 min, then 50 μl plated into each well of the 96 well plate containing diluted test compound and incubated for 15 min. Control wells included DMSO (0.1% final concentration) only or 5 μM cyclosporin A. Platelets were then stimulation with the addition of assay buffer (25 μl) containing CaCl2, alpha thrombin and Convulxin to achieve a final concentrations of 2 mM, 0.017 U/ml and 0.167 μg/ml respectively and incubated for 14 min. The reaction was stopped by the addition of 25 μl 15 mM EDTA in assay buffer. The mitochondrial membrane potential across the population of platelets in each well was then quantified by flow cytometry using a Guava easyCyte 5 Benchtop Flow Cytometer with 3000 events per well. The percentage of platelets with a depolarised mitochondrial membrane potential was calculated for each well. A pIC50 for each compound was then calculated using a standard four parameter curve fit model (GraphPad Prism).

mPTP [3] = assay: mPTP activity assay in isolated rat brain mitochondria; type: biochemical; settings: isolated rat brain mitochondria
Description: mPTP activity was measured in brain mitochondria freshly isolated from female Sprague Dawley (250 to 300 gram) rats. Anaesthetised rats were perfused in-situ with ˜40 ml cold Dulbecco's Phosphate Buffered Saline (DPBS), then brains dissected and transferred into 30 ml Isolation Buffer (225 mM mannitol, 75 mM sucrose, 1 mM EGTA, adjusted to pH 7.4 with 1 M NaOH). The brain was minced using tweezers and a scalpel into ˜5 mm pieces then transferred into a 50 ml Potterton Dounce homogenization tube on ice containing 10 ml ice-cold isolation buffer (as above with addition of Complete Protease inhibitor; 1 tablet per 50 ml buffer).
Homogenisation was carried out using a […] pestle at 1800 rpm. The slurry was centrifuged at 2000 g for 10 min at 4° C., then the supernatant centrifuged at 12,000 g for 9 min. The pellet was resuspended with a dounce homogeniser in isolation buffer as above but with the addition of 0.02% digitonin, centrifuged at 12,000 g for 11 min and finally resuspended in 5 ml modified isolation buffer (as above but with EGTA reduced to 0.1 mM).
Test compounds were prepared in 384 well polypropylene assay plates as described above for the liver mitochondria assay. A stock mitochondria/Fluo5N assay solution was prepared in 5.6 ml assay buffer (120 mM mannitol, 40 mM MOPS, 5 mM KH2PO4, 60 mM KCl, 10 mM pyruvate, 2 mM malate, 2 mM MgCl2, 20 μM ADP, 1.26 μM oligomycin A, adjusted to pH 7.4) supplemented with Fluo5N pentapotassium salt (2 μM) and 1 ml mitochondria suspension, then transferred (15 μl) into the assay plate containing test compounds and incubated for 10 min at RT. Assay plates were then transferred to a FLIPR Tetra plate reader (Molecular Devices). Dye fluorescence was then measured every 3 sec for a total of 10 min. After 12 sec, a 2.5 μl bolus of Ca2+ (75 μM) was added from a source plate containing 675 μM CaCl2) in FLIPR assay buffer. IC50 values for test compounds were calculated using the fluorescence value collected at the 10 min timepoint with % inhibition calculated using the DMSO control and cyclosporin A values at […].

Compound	microsomal CLint at 1 µM [1] [µL/min/mg]	mPTP Human Platelets pIC50 (mPTP [2])	mPTP Rat brain pIC50 (mPTP [3])	mPTP Rat brain pIC50 (mPTP [3]; average value from a larger number of experiments)
Cc1n[nH]c2cc(/C=C/C(=O)NC3CCc4ccccc43)ccc12 (stereo not shown) [Example 25, (E)-N-(2,3-dihydro-1H-inden-1-yl)-3-(3-methyl-1H-indazol-6-yl)acrylamide]	52.9	–	–	–
Cc1c(F)cccc1NC(=O)/C=C/c1ccc2c(c1)NC(=O)C2C (stereo not shown) [Example 8, (E)-N-(3-fluoro-2-methylphenyl)-3-(3-methyl-2-oxoindolin-6-yl)acrylamide]	13	–	–	–
Cc1cccc(C)c1NC(=O)/C=C/c1ccc2c(c1)NC(=O)C2 [Example 19, (E)-N-(2,6-dimethylphenyl)-3-(2-oxoindolin-6-yl)acrylamide]	20	–	–	–
Cc1c(F)cccc1NC(=O)/C=C/c1ccc2c(c1)[nH]c(=O)n2C [Example 7, (E)-N-(3-fluoro-2-methylphenyl)-3-(1-methyl-2-oxo-2,3-dihydro-1H-benzo[d]imidazol-5-yl)acrylamide]	6.5	7.2	6.9	–
Cc1c(F)cccc1NC(=O)/C=C/c1ccc2c(c1)NC(=O)C2 [Example 10, (E)-N-(3-fluoro-2-methylphenyl)-3-(2-oxoindolin-6-yl)acrylamide]	13	7.0	6.5	–
CO[C@H]1Cc2ccccc2[C@@H]1NC(=O)/C=C/c1ccc2c(C)n[nH]c2c1 [Example 54, (E)-N-((1S,2S)-2-methoxy-2,3-dihydro-1H-inden-1-yl)-3-(3-methyl-1H-indazol-6-yl)acrylamide]	–	–	7.7	–
CCn1c(=O)[nH]c2cc(/C=C/C(=O)Nc3cccc(F)c3C)ccc21 [Example 22, (E)-3-(1-ethyl-2-oxo-2,3-dihydro-1H-benzo[d]imidazol-5-yl)-N-(3-fluoro-2-methylphenyl)acrylamide]	9.85	–	–	–
Cc1c(F)cccc1NC(=O)/C=C/c1ccc2c(c1F)NC(=O)C2 [Example 5, (E)-N-(3-fluoro-2-methylphenyl)-3-(7-fluoro-2-oxoindolin-6-yl)acrylamide]	17	–	–	–
Cc1c(F)cccc1NC(=O)/C=C/c1ccc2c(c1)[nH]c(=O)n2C1CC1 [Example 23, (E)-3-(1-cyclopropyl-2-oxo-2,3-dihydro-1H-benzo[d]imidazol-5-yl)-N-(3-fluoro-2-methylphenyl)acrylamide]	9.8	–	–	–
Cc1c(F)cccc1NC(=O)/C(F)=C/c1ccc2c(c1)NC(=O)C2 [Example 47, (Z)-2-fluoro-N-(3-fluoro-2-methylphenyl)-3-(2-oxoindolin-6-yl)acrylamide]	36.8	–	–	–
Cc1ccc(F)c(C)c1NC(=O)/C=C/c1ccc2c(c1)[nH]c(=O)n2C [Example 30, (E)-N-(3-fluoro-2,6-dimethylphenyl)-3-(1-methyl-2-oxo-2,3-dihydro-1H-benzo[d]imidazol-5-yl)acrylamide]	–	–	7.6	–
Cc1c(F)cccc1NC(=O)/C=C/c1ccc2cn[nH]c2c1 [Comparative Example 1, (E)-N-(2-methyl-3-fluorophenyl)-3-(1H-indazol-6-yl)acrylamide, reference compound]	43	6.9	7.6	7.5***
CO[C@H]1Cc2ccccc2[C@@H]1NC(=O)/C=C/c1ccc2c(F)n[nH]c2c1 [Example 73, (E)-3-(3-fluoro-1H-indazol-6-yl)-N-((1S,2S)-2-methoxy-2,3-dihydro-1H-Inden-1-yl)acrylamide]	–	–	7.7	–
Cc1c(F)cccc1NC(=O)/C=C/c1ccc2oc(=O)[nH]c2c1 [Example 6, (E)-N-(3-fluoro-2-methylphenyl)-3-(2-oxo-2,3-dihydrobenzo[d]oxazol-5-yl)acrylamide]	17	7.0	–	–
